Data: patent US11590129B2, “Combination therapy with an antitumor alkaloid” (PHARMA MAR, S.A., priority 2010, dated 2023)
Read-outs that look alike come from different tables or passages of the source.

How the values were obtained:
[1] = test system: PC-3 human prostate cancer cell line; test: cells; details: Homo sapiens, PC-3, 72 h
Experimental: (§1) a. […] Briefly, cells were harvested and seeded in 96 well microtiter plates at a density of 5,000 cells in 150 μL of culture medium and incubated for 24 hours in drug-free medium before treatment with vehicle alone or test compounds for 72 h.
(§2) The cytotoxic effect was measured by the MTT reduction assay, in which 3-(4,5-Dimethylthiazol-2-yl)-2,5-diphenyltetrazolium bromide, a tetrazole, which is reduced to purple formazan in the mitochondria of living cells, was used. MTT (50 μL of 1 mg/mL stock solution) was added to the wells and incubated for 8 hours at 37° C. until formazan crystals were formed. After gently removing the culture medium, DMSO was added to dissolve the insoluble purple formazan product into a colored solution. […] Results were expressed as percentage of control cell growth.
(§3) b. In a second set of assays, A549 human tumor cells were incubated with PM01183 in combination with each of the agents mentioned above.
(§4) As a visual aid, response values were plotted on a scatter plot with dose ratios given on the x-axis and % response values on the y-axis. […] In cases where response values at the two endpoints were approximately equivalent, points lying above or below this predicted line of additivity could be interpreted as representing antagonistic or synergistic drug interaction, respectively.
(§5) Additional serial dilutions were prepared in serum-free culture medium to achieve a final 4× concentration. Aliquots of 50 μL of each diluted compound were added per well.
PC-3 was the human prostate adenocarcinome cell line selected for this assay.

[2] = test system: A549 human lung carcinoma cell line; test: MTT cytotoxicity assay in A549 cells: IC50 of single agents and combinations with PM01183; assay type: cell-based; details: Homo sapiens
Experimental: as §5
A549 was the human lung carcinoma cell line selected for this assay.
as §1, §2, §3, §4

[3] = test system: HGC-27 human gastric carcinoma cell line; test: cells; details: Homo sapiens, HGC-27, 72 h
Experimental: as §1, §2, §3, §4, §5
HGC-27 was the human gastric carcinoma cell line selected for this assay.

[4] = test system: IGROV-1 human ovarian adenocarcinoma cell line; test: cells; details: Homo sapiens, IGROV-1, 72 h
Experimental: as §1, §2, §3, §4, §5
IGROV-1 was the human ovarian adenocarcinoma cell line selected for this assay.

[5] = test system: HepG2 human hepatocellular liver carcinoma cell line; test: MTT cytotoxicity assay in HepG2 cells: IC50 of single agents and combinations with PM01183; assay type: cell-based; details: Homo sapiens
Experimental: as §1, §2, §3, §4, §5
HepG2 was the human hepatocellular liver carcinoma cell line selected for this assay.

[6] = test system: MDA-MB-231 human breast adenocarcinoma cell line; test: cells; details: Homo sapiens, MDA-MB-231, 72 h
Experimental: as §1, §2, §3, §4, §5

A2780 tumors = test: Human ovarian tumor xenografts (A2780) in athymic nude mice, tumor volume % T/C; assay type: in vivo
Experimental: (§6) Female athymic nude mice (Harlan Laboratories Models, S.L. (Barcelona, Spain) were utilized for all experiments. Animals were housed in individually ventilated cages, up to ten per cage in a 12-hour light-dark cycle at 21-23° C. and 40-60% humidity. The mice were allowed free access to irradiated standard rodent diet and sterilized water. Animals were acclimated for at least 5 days prior to tumor implantation with a tumor cell suspension.
The formula to calculate volume for a prolate ellipsoid was used to estimate tumor volume (mm^3) from 2-dimensional tumor measurements: Tumor volume (mm^3)=[L×W^2]÷2, where L is the length and it is the longest diameter in mm, and W is the width and it is the shortest diameter in mm of a tumor. Assuming unit density, volume was converted to weight (i.e., 1 mm^3=1 mg). Tumor volume and animal body weights were measured 2-3 times per week starting form the first day of treatment (Day 0).
PM01183 was provided in the form of vials of lyophilized PM01183 cake which was reconstituted with water for infusion to a concentration of 0.2 mg/mL. The PM01183 stock solution was further diluted in 5% glucose solution for injection to the dosing formulation concentrations. […] Vinorelbine was provided as a solution prepared by diluting the product with 0.9% saline solution.
Dose level groups were administered either as single agents or in combination.
(§7) Comparison of the median tumor volume in the treatment groups (T) to the median tumor volume in the control group (T/C×100%) was used for evaluation of the antitumor efficacy.
Day 9 for PM01183 and vinorelbine study) using the median-effect principle (Chou T. C. Pharmacol. Rev.

U87-MG tumors = test: Human brain tumor xenografts (U87-MG) in athymic nude mice, tumor volume % T/C; assay type: in vivo
Experimental: as §6
The tumor model used in these studies was U87-MG cell line, which was obtained from the American Type Culture Collection (ATCC HTB-14™).
U87-MG cells were grown at 37° C. with 5% CO2 in Minimum Essential Medium Eagle (MEME). Each animal was subcutaneously implanted on the right flank, using 26G needle and a 1 cc syringe, with 5×10^6 U87-MG cells, from in vitro passage 5, in 0.05 mL suspension of 50% Matrigel and 50% serum free medium, without antibiotics.
PM01183 was provided in the form of vials of lyophilized PM01183 cake which was reconstituted with water for infusion to a concentration of 0.2 mg/mL. The PM01183 stock solution was further diluted in 5% glucose solution for injection to the dosing formulation concentrations. Temozolomide was provided as a solution prepared by diluting the product in DMSO 10% in 0.9% saline solution for injection to the target final concentration.
In these experiments, PM01183 and temozolomide treatments, as well as placebo, were administered as follows: PM01183, intravenously once per week up to 3 consecutive weeks, on Days 0, 7 and 14, temozolomide orally, in a daily basis during 8 consecutive days (Days 0 to 7), and placebo was administered following the same schedule as those provided for PM01183 and temozolomide. Dose level groups were administered either as single agents or in combination.
as §7

[7] = test system: A673 human rhabdomyosarcoma cell line; test: cells; details: Homo sapiens, A673, 72 h
Experimental: as §1, §2, §3, §4, §5
A673 was the human rhabdomyosarcoma cell line selected for this assay.

[8] = test system: RXF-393 human kidney carcinoma cell line; test: cells; details: Homo sapiens, RXF 393, 72 h
Experimental: as §1, §2, §3, §4, §5

[9] = test system: U87-MG human glioblastoma cell line; test: cells; details: Homo sapiens, U-87 MG, 72 h
Experimental: as §1, §2, §3, §4, §5
U87-MG was the human glioblastoma cell line selected for this assay.

[10] = paclitaxel 6.25 mg/kg iv days 0,7
[11] = paclitaxel 12.5 mg/kg iv days 0,7
[12] = paclitaxel 18.75 mg/kg iv days 0,7
[13] = paclitaxel 25 mg/kg iv days 0,7
[14] = temozolomide 1.5 mg/kg orally daily days 0 to 7
[15] = temozolomide 3 mg/kg orally daily days 0 to 7

## CC(C)C(=O)Nc1ccc([N+](=O)[O-])c(C(F)(F)F)c1 [Flutamide, flutamide]
[1]
  IC50: 49 µM

## CC(=O)O[C@H]1C(=O)[C@@]2(C)[C@H]([C@H](OC(=O)c3ccccc3)[C@]3(O)C[C@H](OC(=O)[C@H](O)[C@@H](NC(=O)c4ccccc4)c4ccccc4)C(C)=C1C3(C)C)[C@]1(OC(C)=O)CO[C@@H]1C[C@@H]2O [Paclitaxel, paclitaxel]
[2]; A549, 72 h
  IC50: 0.04 µM
[1]
  IC50: 0.09 µM
[3]
  IC50: 0.005 µM
[4]
  IC50: 0.095 µM
[5]; HepG2, 72 h
  IC50: 0.057 µM
[6]
  IC50: 0.0085 µM
A2780 tumors; [10]
  % T/C on day 0: 94.3%
  % T/C on day 3: 60.2%
  % T/C on day 5: 79.7%
  % T/C on day 7: 81.3%
  % T/C on day 10: 59.2%
A2780 tumors; [11]
  % T/C on day 0: 96.2%
  % T/C on day 3: 62.5%
  % T/C on day 5: 73.9%
  % T/C on day 7: 62.5%
  % T/C on day 10: 50.8%
A2780 tumors; [12]
  % T/C on day 0: 95.0%
  % T/C on day 3: 60.4%
  % T/C on day 7: 41.5%
  % T/C on day 10: 31.1%
A2780 tumors; [13]
  % T/C on day 0: 95.3%
  % T/C on day 3: 49.3%
  % T/C on day 7: 34.0%
  % T/C on day 10: 19.8%

## Cn1nnc2c(C(N)=O)ncn2c1=O [temozolomide]
U87-MG tumors; Temozolomide 1.0 mg/kg
  % T/C on day 0: 98.2%
  % T/C on day 2: 100.2%
  % T/C on day 4: 65.1%
  % T/C on day 7: 81.2%
  % T/C on day 9: 55.0%
U87-MG tumors; Temozolomide 1.0 mg/kg, day 11
  % T/C on day 11: 63.5%
U87-MG tumors; Temozolomide 1.0 mg/kg, day 14
  % T/C on day 14: 73.1%
U87-MG tumors; Temozolomide 1.0 mg/kg, day 16
  % T/C on day 16: 75.0%
U87-MG tumors; Temozolomide 1.5 mg/kg
  % T/C on day 0: 94.1%
  % T/C on day 2: 96.9%
  % T/C on day 4: 75.6%
  % T/C on day 7: 73.0%
  % T/C on day 9: 56.5%
U87-MG tumors; Temozolomide 1.5 mg/kg, day 11
  % T/C on day 11: 59.3%
U87-MG tumors; Temozolomide 1.5 mg/kg, day 14
  % T/C on day 14: 50.0%
U87-MG tumors; Temozolomide 1.5 mg/kg, day 16
  % T/C on day 16: 53.5%
U87-MG tumors; Temozolomide 3.0 mg/kg
  % T/C on day 0: 97.1%
  % T/C on day 2: 95.5%
  % T/C on day 4: 67.3%
  % T/C on day 7: 39.4%
  % T/C on day 9: 25.3%
U87-MG tumors; Temozolomide 3.0 mg/kg, day 11
  % T/C on day 11: 22.9%
U87-MG tumors; Temozolomide 3.0 mg/kg, day 14
  % T/C on day 14: 28.4%
U87-MG tumors; Temozolomide 3.0 mg/kg, day 16
  % T/C on day 16: 31.5%
U87-MG tumors; [14]
  % T/C on day 11: 59.3%
  % T/C on day 14: 50.0%
  % T/C on day 16: 53.5%
U87-MG tumors; [15]
  % T/C on day 11: 22.9%
  % T/C on day 14: 28.4%
  % T/C on day 16: 31.5%

## CC[C@]1(O)C[C@H]2CN(CCc3c([nH]c4ccccc34)[C@@](C(=O)OC)(c3cc4c(cc3OC)N(C=O)[C@H]3[C@@](O)(C(=O)OC)[C@H](OC(C)=O)[C@]5(CC)C=CCN6CC[C@]43[C@@H]65)C2)C1 [Vincristine, vincristine]
[2]; A549, 72 hours drug exposure, MTT, read-out: IC50
  IC50: 0.25 µM
[7]
  IC50: 0.0086 µM
[3]
  IC50: 0.0125 µM
[4]
  IC50: 0.379 µM
[5]; HepG2, 72 hours drug exposure, MTT, read-out: IC50
  IC50: 0.06 µM
[6]
  IC50: 0.05 µM
[8]
  IC50: 0.0173 µM
[9]
  IC50: 0.1 µM
